EP4603105A1, “PHARMACEUTICAL COMPOSITION CONTAINING CYCLIC COMPOUND HAVING SELECTIVE KRAS INHIBITORY EFFECT AGAINST HRAS AND NRAS” (CHUGAI SEIYAKU KABUSHIKI KAISHA, priority 2022, dated 2024)
Where a SMILES comes first, the peptide text is derived from it. Bridges are numbered along the chain shown (N, C = ends). [ ]: non-standard residue; d: D form. The star is where a group is joined. hPhe(3-Cl-4-CF3) = N[C@@H](CCc1ccc(C(F)(F)F)c(Cl)c1)C(=O)O; NPrPhe(4-CF3) = CCCN[C@@H](Cc1ccc(C(F)(F)F)cc1)C(=O)O; Piperazinyl(4-(3-oxetanyl)) = C1OCC1N1CCN(*)CC1; NPrPhe(4-Me) = CCCN[C@@H](Cc1ccc(C)cc1)C(=O)O; NMeGly(cPent) = CN[C@H](C(=O)O)C1CCCC1; NMeD = CN[C@@H](CC(=O)O)C(=O)O; NMeL = CN[C@@H](CC(C)C)C(=O)O; Morpholide = C1CN(*)CCO1; NMeA = CN[C@@H](C)C(=O)O; Ac5c = NC1(C(=O)O)CCCC1; Aze = O=C(O)[C@@H]1CCN1; Sar = CNCC(=O)O

Assays:
[1] = biological target: GDP-bound NRAS wild-type protein (Homo sapiens, UniProt P01111); experiment: Binding to NRAS by surface plasmon resonance (SPR), KD and KD ratio to KRAS
In short: (§1)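 Running buffer contained 10 µM GDP and 10 mM MgCl2 to keep RAS in the GDP state, with 4% DMSO at pH 7.4. Compounds were flowed at 100 µL/min in 75 s steps of rising concentration over captured biotin-Avi RAS at 30°C. Sensorgrams were fitted 1:1 for KD.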

HRAS wild-type protein = HRAS wild-type protein (Homo sapiens, UniProt P01112); experiment: Binding to HRAS by surface plasmon resonance (SPR), KD and KD ratio to KRAS
In short: as §1

[2] = system: human lung cancer strain NCI-H441; assay type: cell-based
In short: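 Step one: dispense the test compound in serial DMSO dilutions. Step three: add the reagent and measure […].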

[3] = ratio of KD for GDP-bound NRAS wild-type protein to KD for KRAS
[4] = ratio of KD for HRAS wild-type protein to KD for KRAS
[5] = ratio of KD value for GDP-bound NRAS wild-type protein to KD value for KRAS (SPR)
[6] = ratio of KD value for HRAS wild-type protein to KD value for KRAS (SPR)
[7] = ratio of the KD value with respect to GDP-bound NRAS wild-type protein to the KD value with respect to KRAS
[8] = ratio of the KD value with respect to HRAS wild-type protein to the KD value with respect to KRAS

Sequence of GDP-bound NRAS wild-type protein (P01111 whole entry): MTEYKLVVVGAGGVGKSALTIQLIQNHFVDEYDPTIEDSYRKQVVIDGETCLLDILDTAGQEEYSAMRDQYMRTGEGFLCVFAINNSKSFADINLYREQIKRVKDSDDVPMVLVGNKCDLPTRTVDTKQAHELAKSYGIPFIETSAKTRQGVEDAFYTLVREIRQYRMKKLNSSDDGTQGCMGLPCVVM
Sequence of HRAS wild-type protein (P01112 whole entry): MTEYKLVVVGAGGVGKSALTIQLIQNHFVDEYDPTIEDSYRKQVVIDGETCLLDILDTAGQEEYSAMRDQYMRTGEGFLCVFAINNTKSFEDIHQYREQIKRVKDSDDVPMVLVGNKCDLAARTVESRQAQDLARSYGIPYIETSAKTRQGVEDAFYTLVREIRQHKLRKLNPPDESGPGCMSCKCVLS

Structure (SMILES)	IC50 [2]	NRAS /KRAS [1, 3]	HRAS /KRAS (HRAS wild-type protein; [4])	NRAS /KRAS [1, 5]	HRAS /KRAS (HRAS wild-type protein; [6])	NRAS /KRAS [1, 7]	HRAS /KRAS (HRAS wild-type protein; [8])
CCCN1C(=O)[C@@H]2CCN2C(=O)[C@H](C)N(C)C(=O)[C@H]([C@@H](C)CC)NC(=O)[C@H](CC(C)C)N(C)C(=O)C[C@@H](C(=O)N2CCN(C3COC3)CC2)N(C)C(=O)[C@H](C2CCCC2)N(C)C(=O)C2(CCCC2)NC(=O)[C@@H]2CCCN2C(=O)[C@H](CCc2ccc(C(F)(F)F)c(Cl)c2)NC(=O)CN(C)C(=O)[C@@H]1Cc1ccc(C(F)(F)F)cc1 [PP0184] ([NMeL]I[NMeA][Aze][NPrPhe(4-CF3)][Sar][hPhe(3-Cl-4-CF3)]P[Ac5c][NMeGly(cPent)][NMeD]-{Piperazinyl(4-(3-oxetanyl))}; lactam N-11)	2.1 nM	C (A compound having a KD ratio of 0.1 or more and less than 3 is denoted as C)	B (a compound having 3 or more and less than 10 is denoted as B)				
CCO[C@@H]1C[C@H]2C(=O)NC3(CCC3)C(=O)N(C)[C@@H](C(CC)CC)C(=O)N(C)[C@H](C)CC(=O)N(C)[C@@H](CC3CC3)C(=O)N[C@@H]([C@@H](C)CC)C(=O)N(C)CC(=O)N(C)[C@H]3C/C=C\CCN(C3=O)[C@@H](Cc3ccc(F)cc3)C(=O)N(C)CC(=O)N[C@@H](CCc3cc(F)c(C(F)(F)F)c(F)c3)C(=O)N2C1 [PP1521]	173 nM			A (a compound having 10 or more and less than 20 is denoted as A)	B (a compound having 3 or more and less than 10 is denoted as B)		
CCCN1C(=O)CN(C)C(=O)CN(C)C(=O)[C@H]([C@@H](C)CC)NC(=O)[C@H](CC(C)C)N(C)C(=O)C[C@@H](C(=O)N2CCOCC2)N(C)C(=O)[C@H](C2CCCC2)N(C)C(=O)C2(CCCC2)NC(=O)[C@@H]2CCCN2C(=O)[C@H](CCc2ccc(C(F)(F)F)c(Cl)c2)NC(=O)CN(C)C(=O)[C@@H]1Cc1ccc(C)cc1 [PP0059] ([NMeL]I[Sar][Sar][NPrPhe(4-Me)][Sar][hPhe(3-Cl-4-CF3)]P[Ac5c][NMeGly(cPent)][NMeD]-Morpholide; lactam N-11)	6.1 nM	B (a compound having 3 or more and less than 10 is denoted as B)	C (A compound having a KD ratio of 0.1 or more and less than 3 is denoted as C)				
CCO[C@@H]1C[C@H]2C(=O)NC3(CCC3)C(=O)N(C)[C@@H](C3CCCC3)C(=O)N(C)[C@H](C(=O)N3CCCCC3)CC(=O)N(C)[C@H]3CCCCCCc4ccc(cc4)C[C@@H](C(=O)N(C)CC(=O)N[C@@H](CCc4ccc(C(F)(F)F)c(OC)c4)C(=O)N2C1)N1CC/C=C\C[C@@H](C1=O)N(C)C(=O)CN(C)C(=O)[C@H]([C@@H](C)CC)NC3=O [PP3033]	4.7 nM	A (a compound having 10 or more and less than 20 is denoted as A)	B (a compound having 3 or more and less than 10 is denoted as B)				
CCO[C@@H]1C[C@H]2C(=O)NC3(CCC3)C(=O)N(C)[C@@H](C(CC)CC)C(=O)N(C)C(C(C)C)CC(=O)N(C)[C@@H](CC)C(=O)N[C@@H]([C@@H](C)CC)C(=O)N(C)CC(=O)N(C)[C@H]3C/C=C\CCN(C3=O)[C@@H](Cc3ccc(C(F)(F)F)cc3)C(=O)N(C)CC(=O)N[C@@H](CCc3cc(F)c(C(F)(F)F)c(F)c3)C(=O)N2C1 (stereo partly drawn) [PP1589]	86.6 nM			A (a compound having 10 or more and less than 20 is denoted as A)	A (a compound having 10 or more and less than 20 is denoted as A)		
CCC[C@H]1C(=O)N[C@@H]([C@@H](C)CC)C(=O)N(C)CC(=O)N(C)[C@H]2C/C=C\CCN(C2=O)[C@@H](CC2CCCCC2)C(=O)N(C)CC(=O)N[C@@H](CCc2ccc(C(F)(F)F)c(OC)c2)C(=O)N2C[C@H](OCC)C[C@H]2C(=O)N(C)C2(CCC2)C(=O)N(C)[C@@H](C2CCCC2)C(=O)N(C)[C@H](C(=O)N(C)C)CC(=O)N1C [PP2336]	16.3 nM					A (a compound having 10 or more and less than 20 is denoted as A)	A (a compound having 10 or more and less than 20 is denoted as A)
CC[C@H](C)[C@@H]1NC(=O)[C@H](CC(F)F)N(C)C(=O)C[C@@H](C(=O)N(C)C)N(C)C(=O)[C@H](C2CCCC2)N(C)C(=O)C2(CC(C)(C)C2)NC(=O)[C@@H]2CC(F)(F)CN2C(=O)[C@H](CCc2cc(F)c(C(F)(F)F)c(F)c2)NC(=O)CN(C)C(=O)[C@H](Cc2ccc(C(F)(F)F)cc2)N2CC/C=C\C[C@@H](C2=O)N(C)C(=O)CN(C)C1=O [PP1709]	3.8 nM			A (a compound having 10 or more and less than 20 is denoted as A)	A (a compound having 10 or more and less than 20 is denoted as A)		
CC[C@H](C)[C@@H]1NC(=O)[C@H](CC2CC2)N(C)C(=O)C[C@@H](C(=O)N2CCCC2)N(C)C(=O)[C@H](C2CCCC2)N(C)C(=O)C2(CCCC2)NC(=O)[C@@H]2C[C@@H](F)CN2C(=O)[C@H](CCc2cc(F)c(C(F)(F)F)c(F)c2)NC(=O)CN(C)C(=O)[C@H](Cc2ccc(C(F)(F)F)cc2)N2CC/C=C\C[C@@H](C2=O)N(C)C(=O)CN(C)C1=O [PP1503]	3.8 nM			A (a compound having 10 or more and less than 20 is denoted as A)	A (a compound having 10 or more and less than 20 is denoted as A)		

Now from value to compound, other results behind:

IC50 [2]	Structure (SMILES)	NRAS /KRAS [1, 3]	HRAS /KRAS (HRAS wild-type protein; [4])	NRAS /KRAS [1, 5]	HRAS /KRAS (HRAS wild-type protein; [6])	NRAS /KRAS [1, 7]	HRAS /KRAS (HRAS wild-type protein; [8])
2.2 nM	CC[C@H](C)[C@@H]1NC(=O)[C@H](CC2CC2)N(C)C(=O)C[C@@H](C(=O)N(C)C)N(C)C(=O)[C@H](C2CCCC2)N(C)C(=O)C2(CC(C)(C)C2)NC(=O)[C@@H]2C[C@@H](F)CN2C(=O)[C@H](CCc2cc(F)c(C(F)(F)F)c(F)c2)NC(=O)CN(C)C(=O)[C@H](Cc2ccc(C)cc2)N2CC/C=C\C[C@@H](C2=O)N(C)C(=O)CN(C)C1=O [PP2804]	A (a compound having 10 or more and less than 20 is denoted as A)	A (a compound having 10 or more and less than 20 is denoted as A)				
106 nM	CCC[C@@H]1C[C@H]2C(=O)NC3(CCCC3)C(=O)N(C)[C@@H](C3CCCC3)C(=O)N(C)[C@H](C(=O)N(C)CC)CC(=O)N(C)[C@@H](C)C(=O)N[C@@H]([C@@H](C)CC)C(=O)N(C)CC(=O)N(C)[C@H]3C/C=C\CCN(C3=O)[C@@H](Cc3ccc(C(F)(F)F)cc3)C(=O)N(C)CC(=O)N[C@@H](CCc3cc(F)c(C(F)(F)F)c(F)c3)C(=O)N2C1 [PP2272]					AA (a compound having 20 or more is denoted as AA)	A (a compound having 10 or more and less than 20 is denoted as A)
2.3 nM	CC[C@H](C)[C@@H]1NC(=O)[C@@H]2CCCCc3ccc(cc3)C[C@@H](C(=O)N(C)CC(=O)N[C@@H](CCc3ccc(C(F)(F)F)c(OC)c3)C(=O)N3C[C@H](OC(C)C)C[C@H]3C(=O)NC3(CC(C)(C)C3)C(=O)N(C)[C@@H](C3CCCC3)C(=O)N(C)[C@H](C(=O)N(C)CC)CC(=O)N2C)N2CC/C=C\C[C@@H](C2=O)N(C)C(=O)CN(C)C1=O [PP3078]	A (a compound having 10 or more and less than 20 is denoted as A)	B (a compound having 3 or more and less than 10 is denoted as B)				
17.7 nM	C#CC[C@H]1C(=O)N[C@@H]([C@@H](C)CC)C(=O)N(C)CC(=O)N(C)[C@H]2C/C=C\CCN(C2=O)[C@@H](Cc2ccc(C(F)(F)F)cc2)C(=O)N(C)CC(=O)N[C@@H](CCc2ccc(Cl)c(Cl)c2)C(=O)N2C[C@H](OCC)C[C@H]2C(=O)NC2(CC(C)(C)C2)C(=O)N(C)[C@@H](C2CCCC2)C(=O)N(C)[C@H](C(=O)N(C)CC)CC(=O)N1C [PP2843]	A (a compound having 10 or more and less than 20 is denoted as A)	A (a compound having 10 or more and less than 20 is denoted as A)				
